Measurements as given in patent publication US7358276B2, “2-Oxo-1-pyrrolidine derivatives, processes for preparing them and their uses” (UCB, S.A., priority 2000, dated 2008).

Experiments:
[1] = A. J. GOWER et al., Eur. J. Pharmacol., 222, (1992), 193-203; cited from earlier work
[2] = molecular target: T1, Levetiracetam Binding Site (LBS), rat cerebral cortex membranes (Rattus norvegicus, UniProt Q02563); assay: LBS binding assay (competitive binding, [3H]-2-[4-(3-azidophenyl)-2-oxo-1-pyrrolidinyl]butanamide); details: 4° C., 120 min
T1 construct: The crude membrane pellet obtained is resuspended in 50 mmol/l Tris-HCl (pH 7.4); from tissue; host or cells: rat cerebral cortex crude membranes (male Sprague-Dawley)
T1 sequence (Q02563 whole entry): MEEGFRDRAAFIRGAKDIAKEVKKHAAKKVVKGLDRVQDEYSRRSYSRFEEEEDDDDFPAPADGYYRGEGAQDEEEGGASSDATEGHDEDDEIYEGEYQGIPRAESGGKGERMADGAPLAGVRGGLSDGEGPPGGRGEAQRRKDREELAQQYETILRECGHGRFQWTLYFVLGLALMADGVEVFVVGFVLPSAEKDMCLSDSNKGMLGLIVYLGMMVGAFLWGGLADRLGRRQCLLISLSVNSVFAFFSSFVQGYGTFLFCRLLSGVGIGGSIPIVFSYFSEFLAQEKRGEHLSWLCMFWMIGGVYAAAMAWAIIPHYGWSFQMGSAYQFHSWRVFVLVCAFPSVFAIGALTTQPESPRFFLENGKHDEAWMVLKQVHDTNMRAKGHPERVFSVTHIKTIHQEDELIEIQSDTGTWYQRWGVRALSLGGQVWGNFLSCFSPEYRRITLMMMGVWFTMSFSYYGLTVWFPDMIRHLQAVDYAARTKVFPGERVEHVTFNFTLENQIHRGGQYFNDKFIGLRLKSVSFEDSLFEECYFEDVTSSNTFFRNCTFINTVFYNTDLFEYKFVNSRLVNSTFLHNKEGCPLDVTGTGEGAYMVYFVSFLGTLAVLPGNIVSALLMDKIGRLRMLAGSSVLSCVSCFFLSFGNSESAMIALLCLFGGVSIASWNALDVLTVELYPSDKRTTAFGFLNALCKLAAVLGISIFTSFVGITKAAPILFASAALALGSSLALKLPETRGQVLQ

[3] = test system: audiogenic seizures in sound-susceptible mice; assay: Animal model of sound-susceptible mice (audiogenic seizures); format: in vivo; details: intraperitoneally 60 minutes before induction of audiogenic seizures; doses given in mol/kg
Excerpt: The activity of the compounds of formula I, or their pharmaceutically acceptable salts, as anticonvulsants can be determined in the audiogenic seizures model. The objective of this test is to evaluate the anticonvulsant potential of a compound by means of audiogenic seizures induced in sound-susceptible mice, a genetic animal model with reflex seizures. In this model of primary generalised epilepsy, seizures are evoked without electrical or chemical stimulation and the seizure types are, at least in part, similar in their clinical phenomenology to seizures occurring in man (Löscher W. & Schmidt D., Epilepsy Res. (1998), 2, p. 145-181; Buchhalter J. R., Epilepsia (1993), 34, S31-S41). Results obtained with compounds of formula I are indicative of a strong pharmacological effect.
The objective of this test is to evaluate the anticonvulsant potency of a compound in sound-susceptible mice, a genetic animal model with reflex seizures. In this model of primary generalised epilepsy, seizures are evoked without electrical or chemical stimulation and the seizure types are, at least in part, similar in their clinical phenomenology to seizures occuring in man (Löscher W. & Schmidt D., Epilepsy Res. (1998), 2, 145-181; Buchhalter J. R., Epilepsia (1993), 34, S31-S41).
Male or female genetically sound-sensitive mice (14-28 g; N=10), derived from a DBA strain originally selected by Dr. Lehmann of the Laboratory of Acoustic Physiology (Paris) and bred in the UCB Pharma Sector husbandry unit since 1978, are used. The experimental design consisted of several groups, one group receiving the vehicle control and the other groups different doses of the test-compound. The compounds are administered intraperitoneally 60 minutes before the induction of audiogenic seizures.
For testing, the animals are placed in small cages, one mouse per cage, in a sound-attenuated chamber. After a period of orientation of 30 seconds, the acoustic stimulus (90 dB, 10-20 kHz) is delivered for 30 seconds via loudspeakers positioned above each cage. During this interval, the mice are observed and the presence of the 3 phases of the seizure activity namely wild running, clonic and tonic convulsions, is recorded. The proportion of mice protected against wild running, clonic and tonic convulsions, respectively, is calculated.
For active compounds, an ED50 value, i.e. the dose producing 50% protection relative to the control group, together with 95% confidence limits, was calculated using a Probit Analysis (SAS/STAT® Software, version 6.09, PROBIT procedure) of the proportions of protected mice for each of the 3 phases of the seizure activity.

Structure (SMILES)	activity in the treatment of epilepsy [1]	pKi (affinity for the levetiracetam binding site) [2]	ED50 (dose producing 50% protection against audiogenic seizures) [3]	melting point
CC[C@H](C(N)=O)N1CCCC1=O [(R)-α-ethyl-2-oxo-1-pyrrolidine acetamide]	completely lacks activity	–	–	–
C=C[C@H]1CC(=O)N([C@@H](CC)C(N)=O)C1 [Compound 93]	–	Particular affinity	Particularly promising activity	68.3 °C
CCC(C(N)=O)N1CC(c2ccccc2Br)CC1=O (centres unmarked) [Compound 95]	–	Particular affinity	Particularly promising activity	165.4 °C
CCC(C(N)=O)N1CC(c2cccnc2)CC1=O (centres unmarked) [Compound 96]	–	Particular affinity	Particularly promising activity	104.3 °C
CC[C@@H](C(=O)NC)N1CC(CI)CC1=O (stereo partly drawn) [Compound 146, (2S)-2-[4-(iodomethyl)-2-oxo-1-pyrrolidinyl]-N-methylbutanamide]	–	Particular affinity	Particularly promising activity	66.6 °C
CCC(C(N)=O)N1CC(/C=C\F)CC1=O (centres unmarked) [Compound 162]	–	Particular affinity	Particularly promising activity	105 °C
CCCCC1CC(=O)N(C(CC)C(N)=O)C1 (centres unmarked) [Compound 164]	–	Particular affinity	Particularly promising activity	108.8 °C
CCC(C(N)=O)N1CC(CC(C)C)CC1=O (centres unmarked) [Compound 166]	–	Particular affinity	Particularly promising activity	120.2 °C
CC[C@@H](C(N)=O)N1CC(c2cccc(Br)c2)CC1=O (some centres unmarked) [Compound 180]	–	Particular affinity	Particularly promising activity	99.6 °C
CCC(C(N)=O)N1CC(c2ccc(Cl)c(Cl)c2)CC1=O (centres unmarked) [Compound 187]	–	Particular affinity	Particularly promising activity	177.9 °C
CCC(C(N)=O)N1CC(c2ccc(Cl)cc2Cl)CC1=O (centres unmarked) [Compound 188]	–	Particular affinity	Particularly promising activity	154.7 °C
CCC(C(N)=O)N1CC(CCCc2ccccc2)CC1=O (centres unmarked) [Compound 197]	–	Particular affinity	Particularly promising activity	92.5 °C
CC[C@@H](C(N)=O)N1CC(c2cc(Br)cc(Br)c2)CC1=O (some centres unmarked) [Compound 198]	–	Particular affinity	Particularly promising activity	118.6 °C
CCC(C(N)=O)N1CC(c2ccc(Cl)c(Cl)c2)CC1=O (centres unmarked) [Compound 200]	–	Particular affinity	Particularly promising activity	154.4 °C
CCC(C(N)=O)N1CC(c2ccccc2F)CC1=O (centres unmarked) [Compound 209]	–	Particular affinity	Particularly promising activity	123.7 °C
CCC(C(N)=O)N1CC(c2ccccc2F)CC1=O (centres unmarked) [Compound 211]	–	Particular affinity	Particularly promising activity	150.9 °C
CC[C@@H](C(N)=O)N1CC(CC2CC2)CC1=O (some centres unmarked) [Compound 212]	–	Particular affinity	Particularly promising activity	104.4 °C
CC[C@@H](C(N)=O)N1CC(CCC(F)(F)F)CC1=O (some centres unmarked) [Compound 214]	–	Particular affinity	Particularly promising activity	120.9 °C
CC[C@@H](C(N)=O)N1CC(CCC(F)(F)F)CC1=O (some centres unmarked) [Compound 215]	–	Particular affinity	Particularly promising activity	115.9 °C
CCC(C(N)=O)N1CC(c2cccc(C)c2)CC1=O (centres unmarked) [Compound 219]	–	Particular affinity	Particularly promising activity	79.4 °C
CC[C@@H](C(N)=O)N1CC(CC2CC2)CC1=O (some centres unmarked) [Compound 221]	–	Particular affinity	Particularly promising activity	93.9 °C
C=CCC1CC(=O)N([C@@H](CC)C(N)=O)C1 (stereo partly drawn) [Compound 224, (2S)-2-(4-allyl-2-oxo-1-pyrrolidinyl)butanamide]	–	Particular affinity	Particularly promising activity	69.2 °C
C=CCC1CC(=O)N([C@@H](CC)C(N)=O)C1 (stereo partly drawn) [Compound 228, (2S)-2-(4-allyl-2-oxo-1-pyrrolidinyl)butanamide]	–	Particular affinity	Particularly promising activity	58.3 °C
CC[C@@H](C(N)=O)N1CC(CC(C)=O)CC1=O (some centres unmarked) [Compound 229]	–	Particular affinity	Particularly promising activity	90.6 °C
CCCC1(C)CC(=O)N([C@@H](CC)C(N)=O)C1 (some centres unmarked) [Compound 250]	–	Particular affinity	Particularly promising activity	133.3 °C
CCC(C(N)=O)N1CC(C#CBr)CC1=O (centres unmarked) [Compound 264]	–	Particular affinity	Particularly promising activity	173.2 °C
CC[C@@H](C(N)=O)N1CCCC1=O [Levetiracetam, (S)-α-ethyl-2-oxo-1-pyrrolidine acetamide]	effective in the treatment of epilepsy	–	–	–
